Measurements: patent US20220117972A1, “USE OF PPAR-DELTA AGONISTS IN THE TREATMENT OF MITOCHONDRIAL MYOPATHY” (Reneo Pharmaceuticals, Inc., priority 2019, published 2022)

Columns and labels:
[1] = target: T1, FXR (Homo sapiens, UniProt Q96RI1); assay: nuclear receptor FXR activity; assay type: cell-based
T1 sequence (Q96RI1 1-486): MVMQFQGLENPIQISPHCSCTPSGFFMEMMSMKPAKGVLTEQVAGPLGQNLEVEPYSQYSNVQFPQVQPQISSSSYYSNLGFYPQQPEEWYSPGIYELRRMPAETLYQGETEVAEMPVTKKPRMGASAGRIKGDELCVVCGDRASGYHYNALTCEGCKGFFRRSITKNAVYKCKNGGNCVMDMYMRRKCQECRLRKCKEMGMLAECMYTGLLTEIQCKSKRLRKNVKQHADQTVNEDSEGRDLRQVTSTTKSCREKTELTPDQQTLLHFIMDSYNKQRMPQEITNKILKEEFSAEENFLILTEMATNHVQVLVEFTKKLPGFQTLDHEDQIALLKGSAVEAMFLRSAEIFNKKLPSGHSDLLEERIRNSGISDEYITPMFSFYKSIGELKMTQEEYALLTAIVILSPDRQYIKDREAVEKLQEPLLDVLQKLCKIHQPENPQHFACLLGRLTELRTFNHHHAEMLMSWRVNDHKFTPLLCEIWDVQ

[2] = system: PPARδ regulated genes (CPT1b, PDK4, PGC-1α); assay: in vivo gene expression in mouse muscle, 7-day study; conditions: male C57BL/6 mice, oral 30 mg/kg once daily 7 days, quadriceps muscle 4 h after final dose
Protocol: Male C57BL/6 mice were administered an oral dose of Compound 1 at 30 mg/kg, once daily for 7 consecutive days. Four hours following the final dose administration on day 7, all mice were euthanized, and two samples of quadriceps muscle were dissected from the right and left limbs.

[3] = target: T2, hPPARδ (Homo sapiens, UniProt Q03181); assay: PPAR receptor transactivation assay, human PPARδ; assay type: cell-based
T2 construct: expressed in transfected cells; host or cells: Jump-In GripTite HEK293
T2 sequence (Q03181 211-439 limits assumed): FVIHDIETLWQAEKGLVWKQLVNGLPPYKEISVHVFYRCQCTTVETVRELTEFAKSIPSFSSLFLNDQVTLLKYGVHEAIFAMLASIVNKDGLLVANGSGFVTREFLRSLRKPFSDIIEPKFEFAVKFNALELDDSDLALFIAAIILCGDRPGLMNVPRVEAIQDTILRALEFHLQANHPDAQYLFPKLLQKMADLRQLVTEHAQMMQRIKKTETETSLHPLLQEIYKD
Protocol: Compound 1 was tested on all three human PPAR subtypes (hPPAR): hPPARα, hPPARγ, and hPPARδ. All assays were repeated at least three times for each subtype.
The genes of interest were synthesized and cloned into an appropriate Jump-In™ retargeting vector following the User Guide of the Jump-In™ T-REx™ HEK293 Retargeting Kit (ThermoFisher Catalog No A15008). For example, the vector will be used to transfect and retarget the Jump-In™ HEK293 GripTite™ parental cell line. Stable pools will be antibiotic-selected for about 21 days and tested for target gene expression by functional assay.
Jump-In™ GripTite™ HEK293 parental cells were plated at 60-80% confluency in a T-75 flask in growth medium without antibiotics and transfected with a 1:1 ratio of expression construct and R4 integrase expression construct (20 μg DNA total) using Lipofectamine® LTX (50 μL) and PLUS™ Reagent (20 μL). Following a 48 hours incubation, cells were selected with 600 μg/mL Geneticin® and 10 μg/mL Blasticidin for ˜21 days in growth medium.
Jump-In™ GripTite™ HEK293 rPPAR Alpha, Delta or Gamma UAS-bla-Gal4 cell pools were plated in a 384-well plate format (20,000 cells per well) in OptiMeM without FBS in replicates (n=4). Cells were allowed to adhere for 8 hours before addition of Compound 1 (1 mM top concentration, 3-fold dilutions, 10-point titration). After 16 hours, the cells were loaded with LiveBLAzer®, a fluorescent BLA substrate that gives a blue/green readout of expressing/non-expressing cells, respectively. The blue/green readout was measured on a fluorescent plate reader (Tecan Safire II).

activity on the nuclear receptor FXR [1]: did not show any | EC50 ([3]; Human PPARδ): 31 nM | selectivity for PPARδ over PPARα and PPARγ ([3]; in humans, monkey, and mouse): significantly greater selectivity | agonist type at PPARδ ([3]; in some cases): full agonist
Compound: Cc1cc(OC/C=C(/c2ccc(F)cc2)c2ccc(C#CCN3CCOCC3)cc2)ccc1OCC(=O)O [Compound 1, (E)-[4-[3-(4-Fluorophenyl)-3-[4-[3-(morpholin-4-yl)propynyl]phenyl]allyloxy]-2-methyl-phenoxy]acetic acid]
expression patterns of PPARδ regulated genes (CPT1b, PDK4, PGC-1α) [2]: altered the expression patterns
